Results published in PubChem BioAssay (NCI).
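In this assay, cells in 96-well plates receive the compound at five concentrations for 48 hours. Endpoints are linearly interpolated between the surrounding concentrations. GI50 marks 50% less growth. TGI: total growth inhibition.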

How the values were obtained:
Assay in all cases: inhibition of tumour cell growth, NCI panel, 48 h
SK-MEL-2 melanoma = test system: SK-MEL-2 melanoma
PC-3 prostate = test system: PC-3 prostate
HCC-2998 colon = test system: HCC-2998 colon
UACC-257 melanoma = test system: UACC-257 melanoma
K-562 leukemia = test system: K-562 leukemia
IGROV1 ovarian = test system: IGROV1 ovarian
HCT-116 colon = test system: HCT-116 colon
OVCAR-8 ovarian = test system: OVCAR-8 ovarian
T-47D breast = test system: T-47D breast
OVCAR-4 ovarian = test system: OVCAR-4 ovarian
RXF 393 renal = test system: RXF 393 renal
MDA-MB-231 breast = test system: MDA-MB-231 breast
UACC-62 melanoma = test system: UACC-62 melanoma
SF-268 CNS = test system: SF-268 CNS
HL-60(TB) leukemia = test system: HL-60(TB) leukemia
BT-549 breast = test system: BT-549 breast
DU-145 prostate = test system: DU-145 prostate
MOLT-4 leukemia = test system: MOLT-4 leukemia
HOP-62 NSCLC = test system: HOP-62 NSCLC
SK-MEL-5 melanoma = test system: SK-MEL-5 melanoma
HT29 colon = test system: HT29 colon
786-0 renal = test system: 786-0 renal
HCT-15 colon = test system: HCT-15 colon
SW-620 colon = test system: SW-620 colon
OVCAR-3 ovarian = test system: OVCAR-3 ovarian
NCI-H226 lung = test system: NCI-H226 lung
SK-MEL-28 melanoma = test system: SK-MEL-28 melanoma
NCI-H460 lung = test system: NCI-H460 lung
KM12 colon = test system: KM12 colon
ACHN renal = test system: ACHN renal
LOX IMVI melanoma = test system: LOX IMVI melanoma
A549 NSCLC = test system: A549 NSCLC
CCRF-CEM leukemia = test system: CCRF-CEM leukemia
MALME-3M melanoma = test system: MALME-3M melanoma
OVCAR-5 ovarian = test system: OVCAR-5 ovarian
MDA-MB-435 = test system: MDA-MB-435
UO-31 renal = test system: UO-31 renal
HS 578T breast = test system: HS 578T breast
NCI-H522 lung = test system: NCI-H522 lung
M14 melanoma = test system: M14 melanoma
U251 CNS = test system: U251 CNS
HOP-92 NSCLC = test system: HOP-92 NSCLC
MCF7 breast = test system: MCF7 breast
SK-OV-3 ovarian = test system: SK-OV-3 ovarian
SNB-19 CNS = test system: SNB-19 CNS
SF-539 CNS = test system: SF-539 CNS
COLO 205 colon = test system: COLO 205 colon
NCI-H23 lung = test system: NCI-H23 lung
SN12C renal = test system: SN12C renal
NCI/ADR-RES ovarian = test system: NCI/ADR-RES ovarian
RPMI-8226 leukemia = test system: RPMI-8226 leukemia
TK-10 renal = test system: TK-10 renal
CAKI-1 renal = test system: CAKI-1 renal

SMILES: Clc1cccc(Cc2cn3cc(-c4ccccc4)nc3s2)c1Cl
- GI50 (SK-MEL-2 melanoma): 22.3 µM
- TGI (SK-MEL-2 melanoma): 80.8 µM
- GI50 (PC-3 prostate): 53.7 µM
- TGI (PC-3 prostate): > 100 µM
- GI50 (HCC-2998 colon): 59.5 µM
- TGI (HCC-2998 colon): > 100 µM
- GI50 (UACC-257 melanoma): 67.3 µM
- TGI (UACC-257 melanoma): > 100 µM
- GI50 (K-562 leukemia): > 100 µM
- TGI (K-562 leukemia): > 100 µM
- GI50 (IGROV1 ovarian): 31.4 µM
- TGI (IGROV1 ovarian): > 100 µM
- GI50 (HCT-116 colon): > 100 µM
- TGI (HCT-116 colon): > 100 µM
- GI50 (OVCAR-8 ovarian): 23.5 µM
- TGI (OVCAR-8 ovarian): > 100 µM
- GI50 (T-47D breast): 0.963 µM
- TGI (T-47D breast): > 100 µM
- GI50 (OVCAR-4 ovarian): 3.85 µM
- TGI (OVCAR-4 ovarian): 55.2 µM
- GI50 (RXF 393 renal): 3.13 µM
- TGI (RXF 393 renal): 18.7 µM
- GI50 (MDA-MB-231 breast): 3.08 µM
- TGI (MDA-MB-231 breast): > 100 µM
- GI50 (UACC-62 melanoma): 1.83 µM
- TGI (UACC-62 melanoma): > 100 µM
- GI50 (SF-268 CNS): 59.9 µM
- TGI (SF-268 CNS): > 100 µM
- GI50 (HL-60(TB) leukemia): > 100 µM
- TGI (HL-60(TB) leukemia): > 100 µM
- GI50 (BT-549 breast): 88.2 µM
- TGI (BT-549 breast): > 100 µM
- GI50 (DU-145 prostate): 22.4 µM
- TGI (DU-145 prostate): > 100 µM
- GI50 (MOLT-4 leukemia): > 100 µM
- TGI (MOLT-4 leukemia): > 100 µM
- GI50 (HOP-62 NSCLC): 3.9 µM
- TGI (HOP-62 NSCLC): 47.7 µM
- GI50 (SK-MEL-5 melanoma): > 100 µM
- TGI (SK-MEL-5 melanoma): > 100 µM
- GI50 (HT29 colon): > 100 µM
- TGI (HT29 colon): > 100 µM
- GI50 (786-0 renal): > 100 µM
- TGI (786-0 renal): > 100 µM
- GI50 (HCT-15 colon): > 100 µM
- TGI (HCT-15 colon): > 100 µM
- GI50 (SW-620 colon): > 100 µM
- TGI (SW-620 colon): > 100 µM
- GI50 (OVCAR-3 ovarian): 37.9 µM
- TGI (OVCAR-3 ovarian): > 100 µM
- GI50 (NCI-H226 lung): 27.3 µM
- TGI (NCI-H226 lung): > 100 µM
- GI50 (SK-MEL-28 melanoma): 54.4 µM
- TGI (SK-MEL-28 melanoma): > 100 µM
- GI50 (NCI-H460 lung): > 100 µM
- TGI (NCI-H460 lung): > 100 µM
- GI50 (KM12 colon): 6.35 µM
- TGI (KM12 colon): > 100 µM
- GI50 (ACHN renal): 30.2 µM
- TGI (ACHN renal): > 100 µM
- GI50 (LOX IMVI melanoma): 14.5 µM
- TGI (LOX IMVI melanoma): > 100 µM
- GI50 (A549 NSCLC): 27.2 µM
- TGI (A549 NSCLC): > 100 µM
- GI50 (CCRF-CEM leukemia): > 100 µM
- TGI (CCRF-CEM leukemia): > 100 µM
- GI50 (MALME-3M melanoma): 56.2 µM
- TGI (MALME-3M melanoma): > 100 µM
- GI50 (OVCAR-5 ovarian): > 100 µM
- TGI (OVCAR-5 ovarian): > 100 µM
- GI50 (MDA-MB-435): 3.59 µM
- TGI (MDA-MB-435): > 100 µM
- GI50 (UO-31 renal): > 100 µM
- TGI (UO-31 renal): > 100 µM
- GI50 (HS 578T breast): 17.4 µM
- TGI (HS 578T breast): > 100 µM
- GI50 (NCI-H522 lung): 19.4 µM
- TGI (NCI-H522 lung): > 100 µM
- GI50 (M14 melanoma): > 100 µM
- TGI (M14 melanoma): > 100 µM
- GI50 (U251 CNS): 25.5 µM
- TGI (U251 CNS): > 100 µM
- GI50 (HOP-92 NSCLC): 2.84 µM
- TGI (HOP-92 NSCLC): 16.9 µM
- GI50 (MCF7 breast): 11.5 µM
- TGI (MCF7 breast): > 100 µM
- GI50 (SK-OV-3 ovarian): 10.3 µM
- TGI (SK-OV-3 ovarian): 97.6 µM
- GI50 (SNB-19 CNS): 24.4 µM
- TGI (SNB-19 CNS): > 100 µM
- GI50 (SF-539 CNS): 43.3 µM
- TGI (SF-539 CNS): > 100 µM
- GI50 (COLO 205 colon): > 100 µM
- TGI (COLO 205 colon): > 100 µM
- GI50 (NCI-H23 lung): 60.7 µM
- TGI (NCI-H23 lung): > 100 µM
- GI50 (SN12C renal): > 100 µM
- TGI (SN12C renal): > 100 µM
- GI50 (NCI/ADR-RES ovarian): 76.4 µM
- TGI (NCI/ADR-RES ovarian): > 100 µM
- GI50 (RPMI-8226 leukemia): > 100 µM
- TGI (RPMI-8226 leukemia): > 100 µM
- GI50 (TK-10 renal): 26.1 µM
- TGI (TK-10 renal): > 100 µM
- GI50 (CAKI-1 renal): > 100 µM
- TGI (CAKI-1 renal): > 100 µM
